Columns and labels:
[1] = test system: malondialdehyde (MDA) in myocardial tissues; experiment: MDA (TBARS assay) in myocardial tissues, doxorubicin cardiomyopathy model; conditions: day 14, FIG. 4
ALAS1 [2] = experiment: Alas1 western blot in rat primary cardiomyocytes; format: cell-based; conditions: doxorubicin 2 μM, 24 hours; β-Actin internal control; FIG. 6A
From the text: The obtained image was quantitatively analyzed in image J (NIH). β-Actin (Santa Cruz Biotechnology Inc., sc-47778) was used as an internal control.

[3] = test system: acrolein in myocardial tissues; experiment: Acrolein western blot of myocardial tissues, doxorubicin cardiomyopathy model; conditions: day 14, FIG. 4
From the text: (§1) The obtained image was quantitatively analyzed in image J (NIH). GAPDH (Santa Cruz Biotechnology Inc., sc-32233) was used as an internal control.

[4] = test system: EL-4 cells (mouse malignant lymphoma cells); experiment: Cell survival evaluation by Trypan Blue staining in EL-4 cells; format: cell-based; conditions: 24 hours, FIG. 10A
Description: 5′-ALA (1 mM) was added to EL-4 cells (mouse malignant lymphoma cells), and doxorubicin (1 μM) was added thereto 1 hour later. The cells were collected 24 hours after doxorubicin addition, and dead cells were stained by Trypan Blue staining. The numbers of live cells and dead cells were counted in an automatic cell counter (Countess II FL, Thermo Fisher Scientific Inc.). Cell survival evaluation was conducted from the ratio (%) of the number of live cells to the total number of cells.

[5] = test system: doxorubicin cardiomyopathy model; experiment: Echocardiography in doxorubicin cardiomyopathy model; format: in vivo, mouse; conditions: FIG. 3
[6] = test system: mitochondrial heme in myocardial tissues; experiment: Mitochondrial heme (QuantiChrom Heme Assay Kit) in mouse heart tissues; conditions: day 14, FIG. 9B
Primary cardiomyocytes [7] = experiment: Cell death evaluation assay (Cell Counting Kit-F) in doxorubicin-treated primary cardiomyocytes; format: cell-based, rat; conditions: FIG. 2
Description: (§2) Primary cardiomyocytes were isolated by trypsin and collagenase treatment of the heart harvested from a neonatal rat, and inoculated onto a petri dish. After culture for several days, the culture medium was replaced with a serum-free medium (DMEM), and 2 μM (final concentration) doxorubicin was added from 24 hours later in the serum-free medium. Aminolevulinic acid (5′-ALA, 1 mM) or ferrostatin-1 (Fer-1, 50 μM) was added 1 hour before doxorubicin addition.

[8] = test system: mitochondrial heme in rat primary cardiomyocytes; experiment: Mitochondrial heme (QuantiChrom Heme Assay Kit) in cardiomyocytes; format: cell-based; conditions: FIG. 8C
[9] = test system: iron in myocardial tissues; experiment: Mitochondrial total iron (ferrozine method) in mouse heart tissues; conditions: day 14, FIG. 9A
ALAS1 [10] = experiment: Alas1 western blot in mouse heart tissues; format: in vivo; conditions: doxorubicin 6 mg/kg/dose, days 0, 2, 4; day 7; GAPDH internal control; FIG. 6B
From the text: as §1

Primary cardiomyocytes [11] = experiment: Malondialdehyde (MDA) measurement by TBARS assay in doxorubicin-treated primary cardiomyocytes; format: cell-based, rat; conditions: FIG. 1
Description: as §2, with “medium, and cardiomyocytes were lysed with a RIPA buffer and collected 24 hours after doxorubicin addition.” for “medium.”, “µM)” for “μM)”

protoporphyrin IX (PpIX) = experiment: Protoporphyrin IX measurement by mass spectrometer in cardiomyocytes; format: cell-based, rat; conditions: doxorubicin 2 μM, 24 hours; FIG. 7
Description: After doxorubicin (2 μM, 24 hours) addition to isolated rat primary cardiomyocytes, the cells were collected with PBS. 50% acetic acid and a dimethylformamide (DMF)/2-propanol (IPA) mixed solution were added to the collected sample, and the mixture was vigorously mixed by vortex. After centrifugation, a supernatant was recovered (supernatant 1), and a DMF/IPA mixed solution was added again to pellets, followed by centrifugation again. The supernatant thus obtained by centrifugation (supernatant 2) and the supernatant 1 were combined and used as protoporphyrin IX extracts. Acetonitrile was added to the extracts, and the mixture was deproteinized and then centrifuged at 20000 g for 20 minutes. Then, a supernatant was applied to a mass spectrometer (column: 1.8 UM, 2.1×100 mm; Waters, MA, USA, measurement equipment: Q Exactive Ultimate 3000; Thermo Fisher Scientific Inc.) to measure protoporphyrin IX (PPIX) in the cardiomyocytes.

[12] = test system: mitochondrial iron in rat primary cardiomyocytes; experiment: Mito-FerroGreen fluorescent staining of mitochondrial iron in cardiomyocytes; format: cell-based; conditions: FIGS. 8A and 8B
Description: 5′-ALA (1 mM) was added to isolated rat primary cardiomyocytes, and doxorubicin (2 M) was added from 1 hour later. The cells were washed once with PBS 24 hours after doxorubicin addition and cultured for 30 minutes in a medium supplemented with Mito-FerroGreen (5 µM) for fluorescent staining of mitochondrial iron. The cells were washed with PBS again and then observed under a fluorescence microscope (BZ-X800, Keyence Corp.) (FIG. 8A). The signal intensity of the obtained image was quantitatively analyzed in image J (NIH).

[13] = test system: Hela cells (human uterine cervical cancer cells); experiment: Cell death evaluation assay (Cell Counting Kit-F) in Hela cells; format: cell-based; conditions: 24 hours, FIG. 10B
Description: 5′-ALA (1 mM) was added to Hela cells (human uterine cervical cancer cells), and doxorubicin (2 μM) was added thereto 1 hour later. […] The obtained results were normalized with those of the control group defined as 1, and presented as data.

Primary cardiomyocytes [14] = experiment: Cell death evaluation assay in primary cardiomyocytes with various anthracycline anticancer agents; format: cell-based, rat; conditions: 5′-ALA 1 mM added 2 hours before DOX, DNR, THP, IDR or EPI (1 or 2 μM); 26 hours after addition; FIG. 5
Description: Primary cardiomyocytes were isolated by trypsin and collagenase treatment of the heart harvested from a neonatal rat, and inoculated onto a petri dish. After culture for several days, the culture medium was replaced with a serum-free medium (DMEM), and doxorubicin (DOX; 1 or 2 μM), daunorubicin (DNR; 1 or 2 μM), pirarubicin (THP; 1 or 2 μM), idarubicin (IDR; 1 or 2 μM), or epirubicin (EPI; 1 or 2 μM) was added (final concentrations for all) from 24 hours later in the serum-free medium. Aminolevulinic acid (5′-ALA, 1 mM) was added 2 hours before doxorubicin addition. […] The obtained results were normalized with those of the control group defined as 1, and presented as data.

[15] = doxorubicin 6 mg/kg/dose, days 0, 2, 4
[16] = 5′-ALA 300 mg/kg/day in drinking water from 3 days before doxorubicin
[17] = 5′-ALA oral 300 mg/kg/day in drinking water from 3 days before initial doxorubicin
[18] = 5′-ALA 1 mM added 1 hour before doxorubicin 2 μM, 24 hours after doxorubicin

COc1cccc2c1C(=O)c1c(O)c3c(c(O)c1C2=O)C[C@@](O)(C(=O)CO)C[C@@H]3O[C@H]1C[C@H](N)[C@H](O)[C@H](C)O1 [doxorubicin]
lipid peroxide (MDA) level in myocardial tissues [1, 15]: increase in lipid peroxide (acrolein and MDA) levels | level of ALAS1 in cardiomyocytes (ALAS1 [2]): decreased | lipid peroxide (acrolein) level in myocardial tissues [3, 15]: increase in lipid peroxide (acrolein and MDA) levels | cell death-inducing effect in EL-4 cells (ratio of live cells to total cells) ([4]; doxorubicin 1 μM): a cell death-inducing effects, which are the drug efficacy of doxorubicin, were observed | left ventricular contractility (left ventricular ejection fraction, LVEF) ([5]; doxorubicin 6 mg/kg/dose, days 0, 2, 4, tail vein): reduction in left ventricular contractility | mitochondrial heme in myocardial tissues [6, 15]: heme synthesis disorder is induced | cell death (ferroptosis) of cardiomyocytes (Primary cardiomyocytes [7]; doxorubicin 2 μM, 24 hours): cell death (ferroptosis) of cardiomyocytes induced by doxorubicin | mitochondrial heme in cardiomyocytes ([8]; doxorubicin 2 μM, 24 hours): a heme synthesis disorder is induced | total amount of iron in heart mitochondria (myocardial tissues) [9, 15]: an iron excess state is induced | level of ALAS1 in myocardial tissues (ALAS1 [10]): decreased | lipid peroxide level (MDA) in cardiomyocytes (Primary cardiomyocytes [11]; doxorubicin 2 μM, 24 hours): increase in lipid peroxide level in cardiomyocytes | level of protoporphyrin IX (PpIX) in cardiomyocytes (protoporphyrin IX (PpIX)): decreased | mitochondrial iron in cardiomyocytes (Mito-FerroGreen signal intensity) ([12]; doxorubicin 2 μM, 24 hours): an iron excess state occurs | cell death-inducing effect in Hela cells ([13]; doxorubicin 2 μM): a cell death-inducing effects, which are the drug efficacy of doxorubicin, were observed

CCOC(=O)c1ccc(NC2CCCCC2)c(N)c1 [Fer-1, ferrostatin-1]
cell death (ferroptosis) of cardiomyocytes (Primary cardiomyocytes [7]; Fer-1 50 μM added 1 hour before 2 μM doxorubicin, 24 hours after doxorubicin): equivalent to the effect of Fer-1 | lipid peroxide level (MDA) in cardiomyocytes (Primary cardiomyocytes [11]; Fer-1 50 µM added 1 hour before 2 μM doxorubicin, collected 24 hours after doxorubicin): equivalent to the effect of Fer-1

NCC(=O)CCC(=O)O [5′-ALA, 5-aminolevulinic acid]
lipid peroxide (MDA) level in myocardial tissues [1, 16]: significantly suppressed increase in lipid peroxide (acrolein and MDA) levels | cell death of cardiomyocytes (Primary cardiomyocytes [14]): suppressed the cell death of cardiomyocytes in all the administration groups | lipid peroxide (acrolein) level in myocardial tissues [3, 16]: significantly suppressed increase in lipid peroxide (acrolein and MDA) levels | attenuation of cell death-inducing effect of doxorubicin in EL-4 cells ([4]; 5′-ALA 1 mM added 1 hour before doxorubicin 1 μM): the effects were not attenuated | left ventricular contractility (left ventricular ejection fraction, LVEF) ([5]; 5′-ALA 300 mg/kg/day in drinking water from 3 days before doxorubicin (6 mg/kg/dose, days 0, 2, 4, tail vein), echocardiography 7 and 14 days): significantly improved reduction in left ventricular contractility | mitochondrial heme in myocardial tissues [6, 17]: the disorder is normalized | cell death (ferroptosis) of cardiomyocytes (Primary cardiomyocytes [7]; 5′-ALA 1 mM added 1 hour before 2 μM doxorubicin, 24 hours after doxorubicin): suppressed the cell death (ferroptosis) of cardiomyocytes | mitochondrial heme in cardiomyocytes [8, 18]: the disorder is normalized | total amount of iron in heart mitochondria (myocardial tissues) [9, 17]: the iron excess state is normalized | lipid peroxide level (MDA) in cardiomyocytes (Primary cardiomyocytes [11]; 5′-ALA 1 mM added 1 hour before 2 μM doxorubicin, collected 24 hours after doxorubicin): suppressed increase in lipid peroxide level | mitochondrial iron in cardiomyocytes (Mito-FerroGreen signal intensity) [12, 18]: the iron excess state is normalized | attenuation of cell death-inducing effect of doxorubicin in Hela cells ([13]; 5′-ALA 1 mM added 1 hour before doxorubicin 2 μM): the effects were not attenuated
